Results taken from ChEMBL document CHEMBL5550143, “Modulation of proteasome subunit selectivity of syringolins” (Bioorg Med Chem, 2024).
Activity calls are given as the source filed them. The calls are words filed in the database; no cut-off is given here.

How the values were obtained:
[1] = tested on: DU-145; assay: Cytotoxicity against human DU-145 cells incubated for 72 hrs by CCK8 assay; conditions: DU-145, 72 h
[2] = tested on: LNCaP; assay: Cytotoxicity against human LNCaP cells incubated for 72 hrs by CCK8 assay
[3] = molecular target: T1, Proteasome component C5 (Homo sapiens) (UniProt P20618); assay: Inhibition of 20S proteasome beta-1 (unknown origin) upto 150 uM
T1 sequence (whole entry): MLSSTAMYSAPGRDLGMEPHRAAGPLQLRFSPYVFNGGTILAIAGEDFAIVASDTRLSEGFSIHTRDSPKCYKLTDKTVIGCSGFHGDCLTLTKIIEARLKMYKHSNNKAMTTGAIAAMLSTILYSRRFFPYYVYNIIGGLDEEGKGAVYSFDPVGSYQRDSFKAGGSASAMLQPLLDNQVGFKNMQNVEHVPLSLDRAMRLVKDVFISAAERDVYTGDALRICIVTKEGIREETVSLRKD

[4] = tested on: MM1.S; assay: Cytotoxicity against human MM1.S cells; assay type: functional, cell-based
[5] = molecular target: T2, Proteasome Macropain subunit MB1 (Homo sapiens, UniProt P28074); assay: Inhibition of 20S proteasome beta-5 in human erythrocytes using Suc-LLVY-AMC as substrate by AK-740 assay; parameters: species or system Erythrocyte
T2 sequence (P28074 whole entry): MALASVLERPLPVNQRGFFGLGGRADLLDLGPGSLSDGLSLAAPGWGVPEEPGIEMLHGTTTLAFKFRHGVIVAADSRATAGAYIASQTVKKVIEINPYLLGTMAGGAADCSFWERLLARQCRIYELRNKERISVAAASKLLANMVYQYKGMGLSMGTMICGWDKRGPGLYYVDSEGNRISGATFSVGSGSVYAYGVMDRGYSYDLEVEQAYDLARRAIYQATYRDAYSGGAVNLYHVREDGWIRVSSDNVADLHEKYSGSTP

Compound	IC50 [1]	IC50 [2]	inhibition [3]	IC50 [4]	Ki [5]
CCCCCCCCCC(=O)N[C@@H](Cc1ccccc1)C(=O)N[C@H]1CCCCNC(=O)/C=C/[C@H](Cc2ccc(OC)cc2)NC1=O	487 nM	116 nM			
CCCCCCCCCC(=O)N[C@@H](Cc1ccccc1)C(=O)N[C@H]1CCCCNC(=O)/C=C/[C@H](Cc2ccc(NC)cc2)NC1=O	142 nM	103 nM			
CCCCCCCCCC(=O)N[C@@H](Cc1ccccc1)C(=O)N[C@H]1CCCCNC(=O)/C=C/[C@H](Cc2ccc(C(N)=O)cc2)NC1=O	> 1000 nM	> 1000 nM			
CCCCCCCCCC(=O)N[C@@H](Cc1ccccc1)C(=O)N[C@H]1CCCCNC(=O)/C=C/[C@H](Cc2ccc(O)cc2)NC1=O	> 1000 nM	575 nM			
CC(C)[C@H](NC(=O)N[C@H](C(=O)N[C@H]1CCCCNC(=O)/C=C/[C@H](C(C)C)NC1=O)C(C)C)C(=O)O			inactive		
CCCCCCCCCC(=O)N[C@@H](Cc1ccccc1)C(=O)N[C@H]1CCCCNC(=O)/C=C/[C@H](Cc2ccc(CN)cc2)NC1=O	> 1000 nM	> 1000 nM			
CCCCCCCCCC(=O)N[C@@H](Cc1ccccc1)C(=O)N[C@H]1CCCCNC(=O)/C=C/[C@H](Cc2ccc(NC(=N)N)cc2)NC1=O	> 1000 nM	> 1000 nM			
CC(C)[C@H](NC(=O)N[C@H](C(=O)N[C@H]1/C=C/CCNC(=O)/C=C/[C@H](C(C)C)NC1=O)C(C)C)C(=O)O				8.5 µM	
CCCCCCCCCC(=O)N[C@@H](Cc1ccccc1)C(=O)N[C@H]1CCCCNC(=O)/C=C/[C@H](Cc2ccc(CC(=N)N)cc2)NC1=O	> 1000 nM	> 1000 nM			
CCCCCCCCCC(=O)N[C@@H](Cc1ccccc1)C(=O)N[C@H]1CCCCNC(=O)/C=C/[C@H](Cc2ccccc2)NC1=O	49.1 nM	43.5 nM			
CCCCCCCCCC(=O)N[C@@H](Cc1ccccc1)C(=O)N[C@H]1CCCCNC(=O)/C=C/[C@H](Cc2ccc(CN(C)C)cc2)NC1=O	> 1000 nM	> 1000 nM			
CCCCCCCCCC(=O)N[C@@H](Cc1ccccc1)C(=O)N[C@H]1CCCCNC(=O)/C=C/[C@H](Cc2ccc([N+](=O)[O-])cc2)NC1=O	> 1000 nM	> 1000 nM			
CCCCCCCCCC(=O)N[C@@H](Cc1ccccc1)C(=O)N[C@H]1CCCCNC(=O)/C=C/[C@H](CC(=O)O)NC1=O	> 1000 nM	> 1000 nM			
CCCCCCCCCC(=O)N[C@@H](Cc1ccccc1)C(=O)N[C@H]1CCCCNC(=O)/C=C/[C@H](Cc2ccc(N(C)C)cc2)NC1=O	101 nM	94 nM			
CCCCCCCCCC(=O)N[C@@H](Cc1ccccc1)C(=O)N[C@H]1CCCCNC(=O)/C=C/[C@H](CCC(=O)O)NC1=O	> 1000 nM	> 1000 nM			> 10 µM
CCCCCCCCCC(=O)N[C@@H](Cc1ccccc1)C(=O)N[C@H]1CCCCNC(=O)/C=C/[C@H](C(C)C)NC1=O	119 nM	91.2 nM			
CCCCCCCCCC(=O)N[C@@H](Cc1ccccc1)C(=O)N[C@H]1CCCCNC(=O)/C=C/[C@H](Cc2ccc(C(=O)O)cc2)NC1=O	> 1000 nM	> 1000 nM			
CCCCCCCCCC(=O)N[C@@H](Cc1ccccc1)C(=O)N[C@H]1CCCCNC(=O)/C=C/[C@H](Cc2ccc(C#N)cc2)NC1=O	> 1000 nM	920 nM			
CCCCCCCCCC(=O)N[C@@H](Cc1ccccc1)C(=O)N[C@H]1CCCCNC(=O)/C=C/[C@H](Cc2ccc(B(O)O)cc2)NC1=O	723 nM	882 nM			
CCCCCCCCCC(=O)N[C@@H](Cc1ccccc1)C(=O)N[C@H]1CCCCNC(=O)/C=C/[C@H](Cc2ccc(N)cc2)NC1=O	292 nM	181 nM			
